Results as given in US6476044B1, “Use of morphine derivatives as medicaments for the treatment of neuropathic problems” (Gruenenthal GmbH, priority 2000, dated 2002).
pKi: −log10 of the molar value. Where a name gives a salt, the structure may show the parent alone. Read-outs that look alike come from different tables or passages of the source.

Tests used:
ORL1 receptor [1] = target: T1, ORL1 receptor (Homo sapiens, UniProt P41146); test: Receptor binding assay with 3H-nociceptin/orphanin FQ using membranes of recombinant CHO-ORL1 cells; design: expressed in transfected cells; host or cells: recombinant CHO-ORL1 cells (membranes); settings: for Ki: 0.5 nM 3H-N/OFQ, CHO-ORL1 membranes, WGA-SPA beads, one hour at room temperature, read-out: Ki (nM) ORL1 Binding Assay
T1 sequence (P41146 whole entry): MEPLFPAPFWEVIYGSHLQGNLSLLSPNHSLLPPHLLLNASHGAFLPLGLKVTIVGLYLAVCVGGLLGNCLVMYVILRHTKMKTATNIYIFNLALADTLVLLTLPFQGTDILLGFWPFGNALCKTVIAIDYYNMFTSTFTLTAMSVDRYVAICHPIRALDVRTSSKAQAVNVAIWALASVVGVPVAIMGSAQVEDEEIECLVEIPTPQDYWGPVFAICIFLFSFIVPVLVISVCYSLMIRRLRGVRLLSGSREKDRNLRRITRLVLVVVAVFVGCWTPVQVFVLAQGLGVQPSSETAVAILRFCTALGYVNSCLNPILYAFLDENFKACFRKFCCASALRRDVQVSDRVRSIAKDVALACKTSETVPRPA
Protocol: Furthermore a receptor binding assay with ^3H-nociceptin/ orphanin FQ was carried out with the compounds according to the invention using membranes of recombinant CHO-ORL1 cells. This test system was implemented according to the method proposed by Ardati et al. (Mol. Pharmacol., 51, 1997, pp. 816-824). The concentration of ^3H-N/OFQ in these experiments was 0.5 nM. The binding assays were performed in each case with 20 μg of membrane protein per 200 μl of batch in 50 mM of Hepes, pH 7.4, 10 mM MgCl2 and 1 mM EDTA. The binding to the ORL1 receptor was determined using in each case 1 mg of WGA-SPA beads (Amersham-Pharmacia, Freiburg) by incubating the batch for one hour at room temperature followed by measurement in a Trilux scintillation counter (Wallac, Finland). The affinity is given as the Ki value.

ORL1 receptor [2] = target: T1, ORL1 receptor; test: ORL1 reporter gene assay, antagonist test (cAMP-sensitive luciferase, forskolin-induced, in presence of 10 nM nociceptin/orphanin FQ); assay type: cell-based; design: A cDNA coding for the ORL1 receptor was cloned using standard methods from THP-1 cells; expressed in transfected cells; host or cells: CHO-K1/pSE66/K9/pZeoORL17/K21
Excerpt: (§1) The morphinan derivatives of the general formula I according to the invention were identified with a reporter gene system as ORL1 receptor agonists or as ORL1 receptor antagonists. This reporter gene system is based on the expression of the human ORL1 receptor in CHO-K1 cells, which carry a cAMP-sensitive luciferase gene (Wnendt et al., Regulatory Peptides, 80, 1999, p. 127 the entire disclosure of which is incorporated herein by reference). The formation of cAMP is induced by forskolin, an adenylate cyclase activator.
The inhibition of luciferase formation due to the agonists is lifted to the extent that the antagonist binds to the ORL1 receptor. […] The effect of the antagonists is described by the pKB value.
(§2) The reporter gene system was constructed as follows:
A cDNA coding for the ORL1 receptor was cloned using standard methods from THP-1 cells (European Cell Culture Collection, Porton Down, Great Britain) of a human monocyte cell line and integrated into the plasmid pZeoSV (Invitrogen, Leek, Netherlands). This plasmid, pZeoORL17, was used for the transfection of a cell line, CHO-K1/pSE66/K9, that contains the cAMP reporter plasmid pSE66. The plasmid pSE66 was constructed on the basis of the plasmid pMAMneo-LUC (Clontech, Palo Alto, Calif.) by replacing the RSV promoter of this plasmid by a promoter region in which six CRE elements (cAMP-responsive elements, Comb et al., Nature, 323, 1986, pp. 353-356; Montminy et al., Proc. Natl. Acad. Sci. USA, 83, 1986, pp. 6682-6686; Short et al., J. Biol. Chem., 261, 1986, pp. 9721-9726) lie upstream of a promoter. The SV40 promoter derives from the plasmid pGL2-promoter (Promega, Madison, Wis.). The promoter region constructed in this way controls in the plasmid pSE66 the expression of the luciferase gene from pMAMneo-LUC. Furthermore, pSE66 carries a G418 resistance gene under the control of a further SV40 promoter. The cell line CHO-K1 (European Cell Culture Collection, Porton Down, Great Britain) was rendered stable with pSE66 and the clone CHO-K1/pSE66/K9 was selected for the transfection with pZeoORL17. […]

ORL1 receptor [3] = target: T1, ORL1 receptor; test: ORL1 reporter gene assay, agonist test (inhibition of cAMP-dependent luciferase formation); assay type: cell-based; design: A cDNA coding for the ORL1 receptor was cloned using standard methods from THP-1 cells; expressed in transfected cells; host or cells: CHO-K1/pSE66/K9/pZeoORL17/K21; settings: agonist potency: concentration at semi-maximum inhibition of luciferase formation; CHO-K1 cells expressing human ORL1
Excerpt: as §1
Also, they inhibit in a concentration-dependent manner luciferase formation due to the binding to the ORL1 receptor. The potency, expressed as the IC50 value, indicates the concentration at which the semi-maximum effect of the agonist is reached.
as §2
A cDNA coding for the ORL1 receptor was cloned using standard methods from THP-1 cells (European Cell Culture Collection, Porton Down, Great Britain) of a human monocyte cell line and integrated into the plasmid pZeoSV (Invitrogen, Leek, Netherlands). This plasmid, pZeoORL17, was used for the transfection of a cell line, CHO-K1/pSE66/K9, that contains the cAMP reporter plasmid pSE66. […]

[4] = read-out: PKB ORL1 Reporter Gene Assay (converted)

## C=CCN1CCC23c4c5ccc(O)c4OC2c2c(c4ccccc4n2Cc2cccc(Cl)c2)CC3(OCc2cccc(Cl)c2)C1C5 (stereo not drawn) [Example 2, 17-allyl-6,7-didehydro-4,5α-epoxy-3-hydroxy-14-(m-chloromethoxyphenyl)1′-(m-chlorobenzyl)indolo[6,7:2,′3′]-morphinan hydrochloride]
ORL1 receptor [1]
  Ki: 1080 nM
ORL1 receptor [2]; [4]
  Kb: 102 nM

## 17-cyclopropylmethyl-6,7-didehydro-4,5α-epoxy-3-hydroxy-14-(methoxynaphthalene)1′-(β-methylnaphthalene)indolo-[6,7:2,′3′]-morphinan hydrochloride [Example 4]
ORL1 receptor [1]
  Ki: 982 nM
ORL1 receptor [3]
  IC50: 31.2 nM

## Oc1ccc2c3c1OC1c4c(c5ccccc5n4Cc4ccccc4Cl)CC4(OCc5ccccc5Cl)C(C2)N(CC2CC2)CCC314 (stereo not drawn) [Example 3, 17-cyclopropylmethyl-6,7-didehydro-4,5α-epoxy-3-hydroxy-14-(o-chloromethoxyphenyl)1′-(o-chlorobenzyl)-indolo[6,7:2,′3′]-morphinan hydrochloride]
ORL1 receptor [1]
  Ki: 718 nM
ORL1 receptor [2]; [4]
  Kb: 407 nM

## C=CCN1CCC23c4c5ccc(O)c4OC2c2c(c4ccccc4n2Cc2ccccc2Cl)CC3(O)C1C5 (stereo not drawn) [Example 1, 17-allyl-6,7-didehydro-4,5α-epoxy-3,14-dihydroxy-1′-(o-chlorobenzyl)indolo-[6,7:2,′3′]-morphinan hydrochloride]
ORL1 receptor [1]
  pKi: 6.35
ORL1 receptor [2]
  Kb: 42.7 nM

## 17-cyclopropylmethyl-6,7-didehydro-4,5α-epoxy-14-hydroxy-3-benzyloxy-1′-(p-methoxycarbonylmethylphenyl)-indolo-[6,7:2,′3′]-morphinan hydrochloride [Example 5]
ORL1 receptor [3]
  IC50: 25.8 nM
